Measurements reported in patent US7674792B2, “5(Z)-5-(6-quinoxalinylmethylidene)-2-[2,6-dichlorophenyl)amino]-1,3-thiazol-4(5H)-one” (GlaxoSmithKline LLC, priority 2005, dated 2010).
Counter-ions that a name gives are not always drawn.

Legend:
[1] = oral blood exposure (DNAUC) in rats; type: in vivo, male Sprague-Dawley rats; design: unit not given here; conditions: sodium salt, oral gavage, dose ~1-4 mg/kg, 50% PEG-400, 10% ethanol, 40% of 40% (w/v) aqueous Encapsin
Procedure: Blood (120 microliters) was sampled at the following time intervals: 0, 20, 40, 60,120,180, 240, 360, 480, and 1440 min. […] The oral exposures of the sodium salt of Compound B and the sodium salt of Compound C were quantified by the same method.

[2] = solubility in pH 7.4 phosphate buffer by HPLC; type: physicochemical; conditions: 25 °C, aqueous buffer; sodium salt; pH 7.4, 0.05M phosphate buffer; maximum total concentration 200 uM; 25 deg; read-out: Solvent Solubility at 25 deg, Water pH 7.4
Procedure: The solubility of each compound was determined as follows: two samples are prepared for each compound. One (the standard sample) contains the compound at a fixed concentration of 20 uM in an aqueous/organic mixed solvent cocktail. The other (the test sample) contains the compound at a maximum total concentration of 200 uM in pH 7.4, 0.05M phosphate buffer. The test sample is spun for 15 minutes to remove any undissovled solid. HPLC analyses are performed on these samples. The relative peak areas are used for computing the solubility. The sodium salt of each compound was used for the comparison.

[3] = bioavailability in the Beagle dog; type: in vivo
[4] = physical and chemical stability / hygroscopicity of the crystalline compound; type: physicochemical

Oral DNAUC rats (Sprague-Dawley) [1]	solubility [2] [µM]	bioavailability [3]	hygroscopicity [4]	physical and chemical stability [4]	SMILES
0.34	–	–	–	–	O=C1NC(=Nc2ccccc2Cl)S/C1=C\c1ccc2nccnc2c1 [Compound C · Na, 2-(2-chloro-phenylimino)-5-(quinoxalin-6-ylmethylene)-thiazolidin-4-one sodium salt]
0.49	6	–	–	–	O=C1NC(=Nc2c(Cl)cccc2Cl)S/C1=C\c1ccc2ncccc2c1 [Compound B · Na, 2-(2,6-dichloro-phenylimino)-5-(quinolin-6-ylmethylene)-thiazolidin-4-one sodium salt, reference compound]
–	31	–	–	–	O=C1NC(=Nc2c(Cl)cccc2Cl)S/C1=C\c1ccc2nccnc2c1 [Compound A · Na, (5Z)-5-(6-quinoxalinylmethylidene)-2-[(2,6-dichlorophenyl)amino]-1,3-thiazol-4(5H)-one sodium salt]
–	–	demonstrated bioavailability	non-hygroscopic	physically and chemically stable	O=C1NC(=Nc2c(Cl)cccc2Cl)S/C1=C\c1ccc2nccnc2c1 [Compound D, (5Z)-5-(6-quinoxalinylmethylidene)-2-[(2,6-dichlorophenyl)amino]-1,3-thiazol-4(5H)-one meglumine]
